In patent US20180228801A1, “Method for Enhancing Learning Ability and Memory of Patients with Alzheimer's Disease using Mocetinostat” (National Taiwan Normal University, priority 2017, published 2018):

Experiments:
Assay type in all cases: in vivo, mice (C57BL/6J)
[1] = system: mice with oligomeric Aβ25-35 injected into bilateral hippocampal CA1; experiment: Elevated Plus Maze Test; conditions: Aβ25-35 mice, high dose 0.5 mg/kg i.p. once a day
Description: (§1) Further, in some embodiments of the present invention, C57BL/6J strain male mice (12 week old) are used as a subject in need. After mice are allowed to adapt to the environment for 6 days, mice are anesthetized with Avertin (0.4 g/kg; purchased from Sigma). The mice are fixed on a stereotactic apparatus for operation, followed by injecting oligomeric Aβ25-35 (10 nM, 3 μL) into bilateral hippocampal CA1 (AP: […] relative to the bregma; ML: ±[…] relative to the midline; DV: […] relative to the skull) on day 7. MGCD0103 and equal volume of vehicle (saline) are intraperitoneal (i.p.) injected once a day from day 8, the day after said operation, for 29 days. On day 24, the Open Field Test is performed; on day 26, the EPM is performed; on day 28, the Y-maze is performed; on days 30 to 36, MWM is performed; and on day 37, mice are euthanized for pathological analysis.
By means of observing the mice exploring an unfamiliar environment, and the contradictory and conflicting behavior caused by fear of the animal of highly hanging arms of the maze, the anxiety level of the animal can be determined. […] The total time spent at the open arms for each mouse was recorded by a video tracking system (EthoVision-XT, Noldus).

[2] = system: NEP (Aβ degrading enzyme); experiment: Western blot, NEP; conditions: hippocampus
Description: as §1

[3] = system: mice with oligomeric Aβ25-35 injected into bilateral hippocampal CA1; experiment: Y-Maze Activity Test; conditions: Aβ25-35 mice, high dose 0.5 mg/kg i.p. once a day
Description: as §1, with “On day 24, the Open Field Test is performed; on day 26, the EPM is performed; on day 28, the Y-maze is performed; on days 30 to 36, MWM is performed; and on day 37, mice are euthanized for pathological analysis.” left out
Y-Maze Activity Test is a test that takes advantage of the characteristic that mice tend to explore an unfamiliar environment, so that the short-term spatial memory of mice can be measured by means of a Y-maze module arranged with three arms (35 cm×5 cm×20 cm) formed of white acrylic. The mice are placed in the middle of the three arms of the Y-Maze, and the mice are allowed to freely and spontaneously explore for 8 minutes, wherein one count is recorded when four limbs of the mice completely enter any one of the three arms. […]

synaptophysin = experiment: Western blot, synaptophysin; conditions: Aβ25-35 mice, hippocampus
Description: as §1

[4] = system: acetylated tissue proteins H3; experiment: Western blot, acetylated H3; conditions: chronic i.p. treatment, hippocampus
Description: as §1

[5] = system: cholinergic neurons in medial septum/diagonal band (MS/DB); experiment: Immunohistochemical staining, cholinergic neurons (ChAT); conditions: saline-injected mice; Mean±SEM
Description: as §1
The inventor collects the brain tissue by perfusion followed by fixing and dehydrating, then, 30 μm frozen sections are obtained by a freezing microtome (CMS3050S, Leica). […] After that, avidin-biotin complex (ABC) is detected 1 hour after staining. […] After all sections have been stained, they are then fixed on a slide, dried, dehydrated, mounted, and photographed for quantity (performed by Image Pro Plus, Meida Cyberetics, USA). […]

acetylated alpha-tubulin = experiment: Western blot, acetylated alpha-tubulin; conditions: chronic i.p. treatment, hippocampus
Description: as §1

Nc1ccccc1NC(=O)c1ccc(CNc2nccc(-c3cccnc3)n2)cc1 [MGCD0103, N-(2-Aminophenyl)-4-[[(4-pyridin-3-ylpyrimidin-2-yl)amino]methyl] benzamide]
time spent in the open arm [1]: significantly increased
expression of NEP [2]: do not have significant difference
spontaneous alternation rate (short-term memory) [3]: significantly increased
expression of synaptophysin (synaptophysin): significantly increased
acetylation level of tissue proteins H3 [4]: significantly improve
ChAT, numbers of cholinergic neurons [5]: 52.75 ± 8.27
acetylation level of alpha-tubulin (acetylated alpha-tubulin): significantly improve
